The target in the experiment is Proto-oncogene tyrosine-protein kinase Src (Mus musculus, UniProt P05480). As to the kind of experiment: Kinase Assay. How it is done: 2,6,9-Trisubstituted purines were evaluated for their src kinase inhibitory activities using an ELISA assay.

The IC50 is the point on the concentration scale where inhibition reaches its midpoint.

Sequence of Proto-oncogene tyrosine-protein kinase Src (P05480 2-535 limits assumed): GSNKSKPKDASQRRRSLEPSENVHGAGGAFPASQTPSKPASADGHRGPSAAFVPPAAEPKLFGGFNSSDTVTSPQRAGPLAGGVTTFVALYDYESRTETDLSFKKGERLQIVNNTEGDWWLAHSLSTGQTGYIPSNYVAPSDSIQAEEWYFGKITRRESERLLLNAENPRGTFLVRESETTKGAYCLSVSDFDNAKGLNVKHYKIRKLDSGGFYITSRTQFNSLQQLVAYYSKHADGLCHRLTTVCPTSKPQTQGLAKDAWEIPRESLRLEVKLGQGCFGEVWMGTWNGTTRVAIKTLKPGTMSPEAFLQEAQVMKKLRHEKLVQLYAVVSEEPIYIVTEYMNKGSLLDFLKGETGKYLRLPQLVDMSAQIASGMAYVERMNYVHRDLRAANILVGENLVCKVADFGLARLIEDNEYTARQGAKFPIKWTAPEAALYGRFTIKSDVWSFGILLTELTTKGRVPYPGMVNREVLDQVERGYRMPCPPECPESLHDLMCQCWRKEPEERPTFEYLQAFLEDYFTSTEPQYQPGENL

The compound `CCn1cnc2c(Nc3ccc(P(=O)(O)CP(=O)(O)O)cc3)nc(C3CCNCC3)nc21` [2,6,9-Trisubstituted Purine, 4] registered an IC50 of 665 nM. That is a sub-micromolar value.

Turning to `CCn1cnc2c(Nc3ccc(P(=O)(O)CP(=O)(O)O)cc3)nc(CC3CCNCC3)nc21` [2,6,9-Trisubstituted Purine, 5], the midpoint of inhibition, the IC50, lay at 2310 nM. The compound `CCn1cnc2c(Nc3ccc(P(=O)(O)CP(=O)(O)O)cc3)nc(CCC3CCNCC3)nc21` [2,6,9-Trisubstituted Purine, 6] gave an IC50 of 1010 nM.

`CCn1cnc2c(Nc3ccc(P(=O)(O)CP(=O)(O)O)cc3)nc(CC3CCCNC3)nc21` (stereo not drawn) [2,6,9-Trisubstituted Purine, 7] gave an IC50 of 2300 nM. `CCn1cnc2c(Nc3ccc(P(=O)(O)CP(=O)(O)O)cc3)nc(C[C@H]3CC[C@H](N)CC3)nc21` [2,6,9-Trisubstituted Purine, 9]: the IC50 was 205 nM. In turn, `CCn1cnc2c(Nc3ccc(P(=O)(O)CP(=O)(O)O)cc3)nc(C[C@H]3CC[C@@H](N)CC3)nc21` [2,6,9-Trisubstituted Purine, 10] registered a 50% inhibitory concentration (IC50) of 101 nM. The compound `CCn1cnc2c(Nc3ccc(P(=O)(O)CP(=O)(O)O)cc3)nc(CCCCN)nc21` [2,6,9-Trisubstituted Purine, 11] returned an IC50 of 2110 nM.

With `CCn1cnc2c(Nc3ccccc3)nc([C@H]3CC[C@H](N)CC3)nc21` [2,6,9-Trisubstituted Purine, AP23517], the IC50 was 73 nM.

(Values after BindingDB's records for doi:10.1111/j.1747-0285.2007.00615.x (Ariad Pharmaceuticals, 2008).)
